ChEMBL document CHEMBL1133829, “Design and synthesis of a novel class of histone deacetylase inhibitors” (Bioorg Med Chem Lett, 2001)

Experiments:
HCT-116 = assay: In vitro antiproliferative activity against human colon cancer HCT 116 cells determined by […] assay; type: functional, cell-based
Histone deacetylase 1 [1] = molecular target: T1, Histone deacetylase 1 (Homo sapiens, UniProt Q13547); assay: In vitro inhibition of partially purified recombinant human Histone deacetylase 1
Histone deacetylase 1 [2] = molecular target: T1, Histone deacetylase 1; assay: Concentration of compound required for acetylation of histone-4 in human T24 cancer cells; type: functional, cell-based, Cancer cell lines
Mus musculus [3] = assay: In vivo inhibition of non small cell lung carcinoma A549 tumor in nude mice administered with a daily dose of 40 mg/kg for 21 days; type: functional; conditions: A549, 504 h
Mus musculus [4] = assay: In vivo inhibition of non small cell lung carcinoma A549 tumor in nude mice administered with a daily dose of 20 mg/kg for 21 days; type: functional; conditions: A549, 504 h
Mus musculus [5] = assay: In vivo inhibition of non small cell lung carcinoma A549 tumor in nude mice administered with a daily dose of 50 mg/kg for 21 days; type: functional; conditions: A549, 504 h

T1 sequence (Q13547 whole entry): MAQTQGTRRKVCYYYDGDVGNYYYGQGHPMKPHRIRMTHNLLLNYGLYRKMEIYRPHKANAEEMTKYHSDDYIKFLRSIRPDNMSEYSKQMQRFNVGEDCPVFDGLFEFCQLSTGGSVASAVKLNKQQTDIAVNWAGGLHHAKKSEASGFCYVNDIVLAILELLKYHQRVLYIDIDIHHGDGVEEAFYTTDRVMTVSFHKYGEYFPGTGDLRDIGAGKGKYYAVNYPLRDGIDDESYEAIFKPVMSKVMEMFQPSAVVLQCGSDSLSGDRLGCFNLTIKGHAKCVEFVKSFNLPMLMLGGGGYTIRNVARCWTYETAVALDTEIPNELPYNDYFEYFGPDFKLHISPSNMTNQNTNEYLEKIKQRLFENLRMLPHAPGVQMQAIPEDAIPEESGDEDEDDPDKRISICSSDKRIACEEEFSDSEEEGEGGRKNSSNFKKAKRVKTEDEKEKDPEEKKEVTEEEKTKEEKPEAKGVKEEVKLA

EC50 (HCT-116) [nM]	IC50 (Histone deacetylase 1 [1]) [nM]	EC50 (Histone deacetylase 1 [2]) [nM]	Structure (SMILES)	inhibition in vivo at 40 mg/kg (Mus musculus [3]) [%]	inhibition in vivo at 20 mg/kg (Mus musculus [4]) [%]	inhibition in vivo at 50 mg/kg (Mus musculus [5]) [%]
1000			O=C(/C=C/c1ccc(NS(=O)(=O)c2ccc(Cl)cc2)cc1)NO			
22000	1000	> 25000	O=C(Cc1ccc(NS(=O)(=O)c2ccccc2)cc1)NO			
200		1000	COc1ccc(S(=O)(=O)Nc2ccc(/C=C/C(=O)NO)cc2)cc1OC	50	41	57
4000		> 25000	O=C(/C=C/c1ccc(NS(=O)(=O)c2ccc(Cl)cc2Cl)cc1)NO			
30000	> 25000	> 25000	CC(C)C(Cc1ccc(NS(=O)(=O)c2ccccc2)cc1)C(=O)NO (stereo unspecified)			
2000		5000	O=C(CCc1ccc(NS(=O)(=O)c2ccccc2)cc1)NO			
1000			CC(/C=C/C(=O)NO)=C\[C@@H](C)C(=O)c1ccc(N(C)C)cc1 [TRICHOSTATIN]			
3000			O=C(/C=C/c1ccc(NS(=O)(=O)c2ccccc2)cc1)NO			
700		10000	Cc1ccc(S(=O)(=O)Nc2ccc(/C=C/C(=O)NO)cc2)cc1			
2000	100	5000	O=C(/C=C/c1ccc(NS(=O)(=O)c2ccc(Cl)c(Cl)c2)cc1)NO			
400	60	5000	COc1ccc(S(=O)(=O)Nc2ccc(/C=C/C(=O)NO)cc2)cc1			
